The values that follow come from patent US5508302A, “Phospholipase A2 inhibitors” (American Home Products Corporation, priority 1994, dated 1996).

Broadly, the IC50 is the concentration that inhibits the measured activity by half. Low values mean greater potency in that assay, high ones weaker potency in that assay.

One experiment deals with T1, 5-lipoxygenase (Mus musculus, UniProt P48999).
T1 construct: Resident peritoneal macrophages were collected from female Swiss Webster mice; endogenous in cells; host or cells: resident peritoneal macrophages of female Swiss Webster mice
T1 sequence (P48999 1-674): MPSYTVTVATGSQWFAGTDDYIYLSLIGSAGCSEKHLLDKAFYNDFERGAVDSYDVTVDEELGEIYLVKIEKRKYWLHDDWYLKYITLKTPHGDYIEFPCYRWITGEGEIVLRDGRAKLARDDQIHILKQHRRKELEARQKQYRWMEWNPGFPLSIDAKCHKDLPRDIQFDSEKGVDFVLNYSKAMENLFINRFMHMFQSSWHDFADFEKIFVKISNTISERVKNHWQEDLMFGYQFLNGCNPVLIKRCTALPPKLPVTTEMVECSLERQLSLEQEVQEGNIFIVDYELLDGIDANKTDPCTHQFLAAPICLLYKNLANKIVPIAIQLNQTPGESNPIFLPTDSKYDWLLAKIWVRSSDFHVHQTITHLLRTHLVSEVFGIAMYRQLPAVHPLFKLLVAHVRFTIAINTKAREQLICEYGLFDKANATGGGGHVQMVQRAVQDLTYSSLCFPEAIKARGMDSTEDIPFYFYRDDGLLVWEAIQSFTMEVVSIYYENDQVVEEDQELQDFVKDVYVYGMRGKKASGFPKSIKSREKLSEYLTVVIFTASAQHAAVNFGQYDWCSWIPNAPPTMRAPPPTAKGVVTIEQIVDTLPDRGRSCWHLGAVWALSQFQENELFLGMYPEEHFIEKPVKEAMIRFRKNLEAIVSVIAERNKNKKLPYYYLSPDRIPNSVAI
Description: resident murine peritoneal macrophage test, LTC4 (5-lipoxygenase) by RIA. In kind it is cell-based, mouse (female Swiss Webster). Here is the method:
(§1) The ability of the compounds of the invention to act as inhibitors of the enzymes 5-lipoxygenase and cyclooxygenase was evaluated in the resident murine peritoneal macrophage standard pharmacological test procedure. This test procedure was carried out as follows.
Resident peritoneal macrophages were collected from female Swiss Webster mice (49 days old, 20-25 gms, Buckshire) by lavaging with 7-8 ml Hanks Balanced Salt Solution (HBSS) without Ca^++ and Mg^++ (GIBCO). The lavage fluid from several mice was pooled and centrifuged at 4° C. for 10 minutes at 400 xg. […] Two ml of the cell suspension (4×10^6 cells) were then plated on 35 mm culture dishes (Nunc).
(§2) Residual serum and cellular debris were removed from the monolayers by washing 3x with 2 ml HBSS containing Ca^++ and Mg^++. Macrophages were preincubated for 5 minutes with 1 ml serum-free M199 containing 10 μl dimethyl sulfoxide (DMSO) vehicle or test compound prior to cell activation with zymosan ([…]) or arachidonic acid (AA) (2 μM). After 2 hours, the supernatants are removed and either assayed for LTC4 and PGE2 by radioimmunoassay (RIA) directly or stored at -20° C. In all cases, results are expressed as ng metabolite/4×10^6 cells.
(§3) Calculations: The raw data were converted to ng metabolite/4-10^6 cells using a standard curve. Results were then expressed as percent inhibition of zymosan induced, leukotriene or prostaglandin synthesis (control) using the following equation: […]

The subject of experiment [1] is tetradecanoylphorbol acetate (TPA) induced ear edema. Description: TPA induced ear edema in Webster mice (dermal inflammation). It counts as in vivo. Conditions: for inhibition of TPA induced ear edema: 100 mg/kg, oral, 30 min after TPA, ears measured 4 hrs after TPA. As to the method:
Representative compounds of this invention were evaluated in an in vivo standard pharmacological test procedure that measured the effect of the representative compounds on dermal inflammation, as measured by the prevention of tetradecanoylphorbol acetate (TPA) induced ear edema in Webster mice. This test procedure was carried out as follows.
Mice were placed into plastic boxes in groups of six. Eight groups of mice received TPA topically on the right ear. TPA was dissolved in acetone at a concentration of 100 ug/ml. TPA was applied to the right ear by the means of an automatic pipette. Volumes of 10 ul were applied to the inner and outer surfaces of the ear. Each mouse received 2 ug/ear TPA. The left ear (control) received acetone delivered in the same manner. The compounds to be evaluated were given orally 30 min alter treatment with TPA.
Measurements were taken with Oditest calipers, 0-10 mm with 0.01 graduations. The right and left ears were measured 4 hrs after TPA-induced inflammation.
The difference between right and left ear thickness was calculated and the significance was determined by a one way analysis of variance with Dunnet's comparisons to control (P=0.05). Drug effects are expressed as a percent change from control values according to the following formula. [formula]

Another experiment has as its system cyclooxygenase. Description: resident murine peritoneal macrophage test, PGE2 (cyclooxygenase) by RIA. In kind it is cell-based, mouse (female Swiss Webster). Conditions: for IC50: 95% confidence limits given, mouse macrophages. As to the method:
as §1
Resident peritoneal macrophages were collected from female Swiss Webster mice (49 days old, 20-25 gms, Buckshire) by lavaging with 7-8 ml Hanks Balanced Salt Solution (HBSS) without Ca^++ and Mg^++ (GIBCO). The lavage fluid from several mice was pooled and centrifuged at 4° C. for 10 minutes at 400 xg. The cell pellet was resuspended in Medium 199 (GIBCO) with HEPES buffer containing 100 μg/ml gentamicin. Two ml of the cell suspension (4×10^6 cells) were then plated on 35 mm culture dishes (Nunc).
A macrophage monolayer was established after a 1-1.5 hour incubation of the cells at 37° C. in an atmosphere of […] and 5% CO2. The monolayers were washed 2x with 2 ml HBDSS, containing Ca^++ and Mg^++ after which 2 ml Medium 199 supplemented with 10% freshly thawed heat-inactivated fetal bovine serum and 100 μg/ml gentamicin was added for an overnight incubation.
as §2, §3

Structures are written as SMILES. Several values for one entry are separate records, joined by “and”; a condition that tells them apart may be missing. Equal values may be shown once. Where a name gives a salt, the structure may show the parent alone.

On to `O=C(CCC1CCCCCCCCCCC1=O)C1=C(O)CSC1=O` (centres unmarked) [Example 2, 4-Hydroxy-3-[3-(2-Oxocyclododecyl)propionyl]-2-(5H)-thiophenone], for which the entries for the “LTC4 % Inhibition” value at 5-lipoxygenase (dose 0.1 μM) and on 5-lipoxygenase (dose 0.5 μM) were -4.9% and 39.5%, respectively. Further, the “inhibition of TPA induced ear edema” value in experiment [1] is 40%. Also, the “PGE2 % Inhibition” value is -35.0% in the experiment on cyclooxygenase (dose 0.1 μM) and 3.3% in the experiment on cyclooxygenase (dose 0.5 μM).
For `O=C(CCC1CCCCCCCCCCC1=NOCc1ccccc1)C1=C(O)CSC1=O` (centres unmarked) [Example 4, 3-{3-[2-(Benzyloxyimino)cyclododecyl]-propionyl}-4-hydroxy-2-(5H)-thiophenone 2-amino-(2-hydroxymethyl)-1,3-propanediol salt], the “LTC4 % Inhibition” value on 5-lipoxygenase (dose 0.03 μM) was 45%; on 5-lipoxygenase (dose 0.1 μM), 37% and 66%; at 5-lipoxygenase (dose 0.35 μM) it was 97%; on 5-lipoxygenase (dose 0.5 μM), 77%. Besides, in experiment [1], the “inhibition of TPA induced ear edema” value is reported as 19%. The “PGE2 % Inhibition” value in the experiment with cyclooxygenase (dose 0.03 μM) is 18%; in the experiment on cyclooxygenase (dose 0.35 μM), 52%; in the experiment with cyclooxygenase (dose 0.5 μM), 82%.
`O=C(CCC1CCCCCCCCCCC1=O)C1=C(O)COC1=O` (centres unmarked) [Example 1, 4-Hydroxy-3-[3-(2-oxocyclododecyl)-propionyl]-2-(5H)-furanone]: the “LTC4 % Inhibition” value on 5-lipoxygenase (dose 0.1 μM) came to 2.1%; at 5-lipoxygenase (dose 0.5 μM), 38.7%. The “PGE2 % Inhibition” value in the experiment on cyclooxygenase (dose 0.1 μM) is given as -17.9%; in the experiment on cyclooxygenase (dose 0.5 μM), 5.8%.
In the case of `CC(Cc1ccc(O)c(O)c1)C(C)Cc1ccc(O)c(O)c1` (centres unmarked) [NDGA, reference compound], half-maximal inhibition in the experiment with cyclooxygenase (IC50) was put at 2150 nM.
As to `COc1ccc2c(c1)c(CC(=O)O)c(C)n2C(=O)c1ccc(Cl)cc1` [Indomethacin, reference compound], the “activity in TPA induced ear edema” value in experiment [1] (at 10 mg/g (so in the source)) was “inactive”.
As to `O=C(CCC1CCCCCCCCCCC1=NOCc1ccccc1)C1=C(O)COC1=O` (centres unmarked) [Example 3, 3-{3-[2-(Benzyloxyimino)cyclododecyl]-propionyl}-4-hydroxy-2-(5H)-furanone 2-amino-(2-hydroxymethyl)-1,3-propanediol salt], the “LTC4 % Inhibition” value on 5-lipoxygenase (dose 0.03 μM) is 40%; on 5-lipoxygenase (dose 0.1 μM) it was 38% and 53%; on 5-lipoxygenase (dose 0.5 μM), 64% and 68%. Further, the “inhibition of TPA induced ear edema” value in experiment [1] is given as 34%. Besides, the “PGE2 % Inhibition” value with cyclooxygenase (dose 0.03 μM) was 8%; in the experiment on cyclooxygenase (dose 0.5 μM), 86% and 59%.
Take `CCCCCC#CCC#CCC#CCC#CCCCC(=O)O` [ETYA, reference compound]: in the experiment with cyclooxygenase, the 50% inhibitory concentration (IC50) worked out at 1260 nM.
